This passage reports IC50 results from patent publication US12612410B2 (CHILDREN'S HOSPITAL MEDICAL CENTER, priority 2020, dated 2026).

One test deals with T1, IRAK1 (Homo sapiens, UniProt P51617).
T1 construct: purchased Reaction Biology (RBC), HotSpot kinase assay
Kind of test: RBC HotSpot Kinase Assay, IRAK1. The class given is biochemical. Conditions: isolated kinase, 33P-ATP. The method in brief: (§1)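 Steps: substrate in reaction buffer (20 mM Hepes pH 7.5, 10 mM MgCl2, 2 mM DTT, 1% DMSO); cofactors added; kinase added; compound dispensed acoustically, 20 min RT; 33P-ATP added; 2 h RT; P81 filter capture.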

For a further test, the system named is MOLM14 D835Y cells. Kind of test: MOLM14 D835Y cell viability assay (Cell Titer Glo). It is filed as cell-based. The protocol:
(§2) Both cell lines have activated FLT3 receptors, each of which carry additional resistance mutations in the kinase domain (D835Y and F691L, respectively).
(§3) MOLM14 D835Y and MOLM14 F691L cells were grown in RPMI-1640 media supplemented with 20% fetal bovine serum (FBS). For viability/cytotoxicity assessments, cells were seeded into 1536-well white polystyrene tissue culture-treated Greiner plates using a Multidrop Combi dispenser (ThermoFisher), in final volume 5 μL of growth media per well, at a density of 1000 cells per well. After cell addition, 23 nL of test compound were transferred into individual wells (22 doses tested for each test compound, with a 1:2 dilution series starting at 10 μM) via a 1536 pin-tool. Bortezomib (final concentration 2.3 μM) was used as a positive control for cell cytotoxicity. Plates were incubated for 48 hours at standard incubator conditions covered by a stainless steel gasketed lid to prevent evaporation. 48 hours post compound addition, 3 μL of Cell Titer Glo (Promega) were added to each well and plates were incubated at room temperature for 15 minutes with the stainless-steel lid in place. Luminescence readings were taken using a Viewlux imager (PerkinElmer) with a 2 second exposure time per plate.
A general note: In ATP-based viability assays light output follows the ATP content of the culture.

The subject of another test is MOLM14 F691L cells. Kind of test: MOLM14 F691L cell viability assay (Cell Titer Glo). The class given is cell-based. As to the method:
as §2, §3

The next test has as its target T2, IRAK4 (Homo sapiens, UniProt Q9NWZ3).
T2 sequence (Q9NWZ3 1-460): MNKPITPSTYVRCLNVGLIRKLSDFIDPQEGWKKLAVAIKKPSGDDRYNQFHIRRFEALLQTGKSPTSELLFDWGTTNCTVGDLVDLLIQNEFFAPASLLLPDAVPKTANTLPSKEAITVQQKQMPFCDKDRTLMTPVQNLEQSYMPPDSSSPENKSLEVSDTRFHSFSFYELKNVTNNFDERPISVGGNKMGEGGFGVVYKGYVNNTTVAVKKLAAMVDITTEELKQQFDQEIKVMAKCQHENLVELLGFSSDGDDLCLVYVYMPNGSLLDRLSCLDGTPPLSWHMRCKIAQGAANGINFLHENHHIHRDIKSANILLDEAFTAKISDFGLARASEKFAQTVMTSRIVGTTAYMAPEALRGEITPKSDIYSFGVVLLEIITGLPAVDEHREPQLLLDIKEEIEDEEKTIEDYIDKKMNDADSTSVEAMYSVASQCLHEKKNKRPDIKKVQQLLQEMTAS
Kind of test: RBC HotSpot Kinase Assay, IRAK4. The class given is biochemical. Also on record: purchased Reaction Biology (RBC), HotSpot kinase assay. Conditions: isolated kinase, 33P-ATP. The method in brief: as §1

Another test concerns the target T3, FLT3 (Homo sapiens, UniProt P36888).
T3 sequence (P36888 27-993): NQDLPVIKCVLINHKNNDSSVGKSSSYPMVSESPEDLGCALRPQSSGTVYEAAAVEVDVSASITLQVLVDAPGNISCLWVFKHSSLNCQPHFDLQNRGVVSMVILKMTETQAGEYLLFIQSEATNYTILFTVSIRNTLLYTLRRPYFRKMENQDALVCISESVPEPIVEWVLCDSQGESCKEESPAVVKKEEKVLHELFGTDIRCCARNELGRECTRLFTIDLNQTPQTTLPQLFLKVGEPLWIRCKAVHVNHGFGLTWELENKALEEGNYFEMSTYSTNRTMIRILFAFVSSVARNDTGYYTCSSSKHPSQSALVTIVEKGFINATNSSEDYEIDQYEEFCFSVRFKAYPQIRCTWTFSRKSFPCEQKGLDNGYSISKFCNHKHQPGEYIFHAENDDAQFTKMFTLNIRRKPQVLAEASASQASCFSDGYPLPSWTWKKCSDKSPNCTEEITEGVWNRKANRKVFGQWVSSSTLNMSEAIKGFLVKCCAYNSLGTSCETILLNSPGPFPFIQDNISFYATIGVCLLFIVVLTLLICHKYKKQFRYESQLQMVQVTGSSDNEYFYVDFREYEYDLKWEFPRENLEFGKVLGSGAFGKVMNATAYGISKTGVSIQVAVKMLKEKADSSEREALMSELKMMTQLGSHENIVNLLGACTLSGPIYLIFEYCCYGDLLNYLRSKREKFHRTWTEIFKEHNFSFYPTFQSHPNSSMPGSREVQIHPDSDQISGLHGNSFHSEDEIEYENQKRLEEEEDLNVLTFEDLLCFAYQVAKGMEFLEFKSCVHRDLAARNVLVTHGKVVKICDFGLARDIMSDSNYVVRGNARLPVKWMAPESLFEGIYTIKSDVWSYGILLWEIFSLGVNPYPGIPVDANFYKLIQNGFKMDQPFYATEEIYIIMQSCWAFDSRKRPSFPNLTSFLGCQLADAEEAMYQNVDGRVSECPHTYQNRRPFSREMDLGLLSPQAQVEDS
Kind of test: RBC HotSpot Kinase Assay, FLT3. The class given is biochemical. Also on record: purchased Reaction Biology (RBC), HotSpot kinase assay. The following applies: isolated kinase, 33P-ATP. In short, it runs like this:
as §1

pIC50: −log10 of the molar value.

T1 sequence (P51617 whole entry): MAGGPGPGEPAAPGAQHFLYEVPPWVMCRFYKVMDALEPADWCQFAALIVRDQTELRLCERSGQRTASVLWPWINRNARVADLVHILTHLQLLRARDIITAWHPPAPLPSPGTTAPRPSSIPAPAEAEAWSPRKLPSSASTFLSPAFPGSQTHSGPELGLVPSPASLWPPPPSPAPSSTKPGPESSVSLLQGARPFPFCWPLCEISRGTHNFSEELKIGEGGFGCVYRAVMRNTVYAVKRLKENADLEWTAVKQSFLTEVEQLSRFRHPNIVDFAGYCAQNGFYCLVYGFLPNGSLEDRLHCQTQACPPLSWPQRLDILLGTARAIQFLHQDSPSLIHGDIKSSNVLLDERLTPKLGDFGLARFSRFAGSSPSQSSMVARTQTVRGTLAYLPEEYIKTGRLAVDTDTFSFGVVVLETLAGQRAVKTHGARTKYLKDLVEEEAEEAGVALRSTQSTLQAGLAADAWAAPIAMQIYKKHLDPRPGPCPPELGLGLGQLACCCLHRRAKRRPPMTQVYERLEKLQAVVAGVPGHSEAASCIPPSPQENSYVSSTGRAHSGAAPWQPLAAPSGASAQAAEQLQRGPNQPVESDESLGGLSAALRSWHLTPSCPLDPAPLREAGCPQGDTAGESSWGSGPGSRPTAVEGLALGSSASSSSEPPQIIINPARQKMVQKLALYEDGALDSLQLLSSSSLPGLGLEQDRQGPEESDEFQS

As to `CC(O)(c1cn2c(-c3cc(F)cc(N[C@H]4CNCC[C@@H]4F)n3)cnc2cn1)C(F)(F)F` (single isomer, unassigned) [Compound 88], the pIC50 against IRAK1 was 7.16; in the test on MOLM14 D835Y cells (48 hours), 7.01; with MOLM14 F691L cells (48 hours), 6.66; at IRAK4 it was 7.82; on FLT3 it was 9.00.
In the case of `CC(O)(c1cn2c(-c3nc(N[C@@H]4CCCNC4)c(F)cc3F)cnc2cn1)C(F)(F)F` (single isomer, unassigned) [Compound 89], the pIC50 was 8.05 against IRAK1; 7.39 in the test on MOLM14 D835Y cells (48 hours); 6.19 with MOLM14 F691L cells (Homo sapiens, MOLM-14, 48 h); > 9.30 at IRAK4; > 9.30 against FLT3.
`CC(O)(c1cn2c(-c3nc(N[C@@H]4CCCNC4)c(F)cc3F)cnc2cn1)C(F)(F)F` (single isomer, unassigned) [Compound 90]: the pIC50 on IRAK1 is 7.80; with MOLM14 D835Y cells (48 hours), 7.02; with MOLM14 F691L cells (48 hours), 6.09; against IRAK4, 8.15; against FLT3, 8.70.
Take `CC(O)(c1cn2c(-c3nc(N[C@H]4CNC[C@@H]4F)c(F)cc3F)cnc2cn1)C(F)(F)F` (single isomer, unassigned) [Compound 91]: the pIC50 was 7.40 against IRAK1; 6.71 with MOLM14 D835Y cells (48 hours); 5.81 in the test with MOLM14 F691L cells (Homo sapiens, MOLM-14, 48 h); 8.70 on IRAK4; 8.52 against FLT3.
Regarding `CC(O)(c1cn2c(-c3nc(N[C@H]4CNCC[C@@H]4F)c(F)cc3F)cnc2cn1)C(F)(F)F` (single isomer, unassigned) [Compound 92], the pIC50 against IRAK1 was 7.96; in the test with MOLM14 D835Y cells (Homo sapiens, MOLM-14, 48 h), 7.06; in the test with MOLM14 F691L cells (Homo sapiens, MOLM-14, 48 h), 6.01; against IRAK4, 8.70; at FLT3, 8.70.
For `CC(O)(c1cn2c(-c3nc(N[C@H]4CNC[C@@H]4F)c(F)cc3F)cnc2cn1)C(F)(F)F` (single isomer, unassigned) [Compound 93], the pIC50 against IRAK1 was 8.10; in the test with MOLM14 D835Y cells (48 hours), 7.14; in the test with MOLM14 F691L cells (48 hours) it was 6.01; on IRAK4 it was > 9.30; on FLT3 it was 9.00.
For `CC(O)(c1cn2c(-c3nc(N[C@H]4CNCC[C@@H]4F)c(F)cc3F)cnc2cn1)C(F)(F)F` (single isomer, unassigned) [Compound 94], the pIC50 is 8.10 on IRAK1; 7.11 in the test with MOLM14 D835Y cells (48 hours); 6.06 in the test on MOLM14 F691L cells (48 hours); 9.10 on IRAK4; 9.00 at FLT3.
For the molecule `CC1(c2cn3c(-c4cccc(N[C@@H]5CCCNC5)n4)cnc3cn2)CC1` [Compound 2, (R)-6-(6-(1-methylcyclopropyl)imidazo[1,2-a]pyrazin-3-yl)-N-(piperidin-3-yl)pyridin-2-amine], the pIC50 was 7.17 against IRAK1; 8.15 in the test with MOLM14 D835Y cells (Homo sapiens, MOLM-14, 48 h); 7.47 with MOLM14 F691L cells (Homo sapiens, MOLM-14, 48 h); 9.15 against IRAK4; > 9.30 against FLT3.
In the same order, the values of `F[C@H]1CNC[C@@H]1Nc1cccc(-c2cnc3cnc(C4(C(F)(F)F)CC4)cn23)n1` [Compound 8, N-((3S,4S)-4-fluoropyrrolidin-3-yl)-6-(6-(1-(trifluoromethyl)cyclopropyl)imidazo[1,2-a]pyrazin-3-yl)pyridin-2-amine] are 6.86, 7.36, 6.42, 8.70 and > 9.30.
Consider `FC(F)(F)C1(c2cn3c(-c4cccc(N[C@@H]5CCCNC5)n4)cnc3cn2)CC1` [Compound 9, (R)-N-(piperidin-3-yl)-6-(6-(1-(trifluoromethyl)cyclopropyl)imidazo[1,2-a]pyrazin-3-yl)pyridin-2-amine], for which the pIC50 against IRAK1 is 6.90; in the test with MOLM14 D835Y cells (Homo sapiens, MOLM-14, 48 h), 7.74; in the test on MOLM14 F691L cells (Homo sapiens, MOLM-14, 48 h) it was 6.97; against IRAK4, 8.15; on FLT3, > 9.30.

Broadly, the pIC50 is −log10 of the IC50, conventionally taken in molar units. A low value points to a large IC50.
